# Results as given in US8828696B2, “Use of Penicillin G Procaine as a selective antimicrobial agent in the production of alcohol by fermentation” (Lallemand Specialites, Inc, priority 2008, dated 2014).
# What was measured:
# Lactobacillus brevis = experiment: Bacterial inhibition test; format: cell-based; parameters: key to bacterial growth in inhibition test: successful test corresponding to no growth is represented as (=); barely discernable growth is represented as (±); easily noticeable bacterial growth is represented as (+)
# Source text: (§1) To directly measure the efficacy of Penicillin G Procaine and Penicillin G Potassium a bacterial inhibition test was designed using industrial isolates and chosen ATCC strains. The inhibition testing was spread over 0.1 ppm to 5.0 ppm for the Lactobacillus fermentum and 1.0 ppm to 5.0 ppm for Lactobacillus brevis species of bacteria due to the lack of response of Lactobacillus brevis at lower concentrations. […] The strains used were two isolates of Lactobacillus fermentum and 2 isolates of Lactobacillus brevis. The Lactobacillus fermentum series contained both an industry derived isolate Ind 1 and an ATCC strain while the Lactobacillus brevis series comprised of two isolates, Ind 1 and Ind 43 derived from the ethanol plants. The inhibition test plates were set in triplicate and read at 12 hour intervals up to 48 hours of test endpoint. The results below represent the mode average of the outcome from the triplicate inhibitory test sets for each trial. Table 11 lists the Lactobacillus fermentum and the Lactobacillus brevis results of the inhibition testing as follows: successful test corresponding to no growth is represented as (=), barely discernable growth is represented as (±) and easily noticeable bacterial growth is represented as (+). The set of control tests depict (=) control as just broth and (+) control as just broth with bacteria but without any antibiotic.
# (§2) The trial was set up as follows:
# (§3) • 1. Weigh out 0.1 g of each sample to be tested into a 15 ml centrifuge tube. • 2. Dissolve sample into 10 ml sterile water. […] Add antibiotic to clean tube, add 2 ml water. • b. Vortex, if antibiotic goes into solution add water for final volume of 10 ml. • c. […] Vortex until all material is in solution. • 3. Vortex the solutions to make sure that they are well mixed. • 4. Filter the solutions through a 0.2 μm syringe filter into a second labeled sterile centrifuge tube. • 5. Add antibiotic solution to MRS Broth for a final volume of 10 ml at the test concentration for each antibiotic. • 6. Mix organism solutions and add 2 μl to each of 3 wells of a 24 well plate. If tubes are used add the 2 μl to each of three tubes for each antibiotic. • 7. Transfer 1 ml of the antibiotic-broth solution to each well containing bacteria. • 8. Recap remaining antibiotic solution and return the tube to the tube rack. This tube will become the negative control for each dilution created. • 9. Add four μl of each bacterial culture to another set of wells and add […] of broth without antibiotics. These wells will be the positive controls. • 10. Incubate plates and tubes at 33 C for 48 hours, examining all samples at 24 hours for growth. Any turbidity detected should be a result of bacterial growth.
# Lactobacillus fermentum = experiment: Bacterial inhibition test; format: cell-based; parameters: key: successful test corresponding to no growth is represented as (=); barely discernable growth is represented as (±); easily noticeable bacterial growth is represented as (+)
# Source text: as §1, §2, §3
compound,measurement,setting,value
CC1(C)S[C@@H]2[C@H](NC(=O)Cc3ccccc3)C(=O)N2[C@H]1C(=O)O.CCN(CC)CCOC(=O)c1ccc(N)cc1 [Penicillin G Procaine],bacterial growth in inhibition test,"Lactobacillus brevis; Ind 1 L. brevis, 1 ppm, Inc Time 12",±
same,bacterial growth in inhibition test,"Lactobacillus brevis; Ind 1 L. brevis, 1 ppm, Inc Time 24",+
same,bacterial growth in inhibition test,"Lactobacillus brevis; Ind 1 L. brevis, 1 ppm, Inc Time 36",+
same,bacterial growth in inhibition test,"Lactobacillus brevis; Ind 1 L. brevis, 1 ppm, Inc Time 48",+
same,bacterial growth in inhibition test,"Lactobacillus brevis; Ind 1 L. brevis, 2 ppm, Inc Time 12",±
same,bacterial growth in inhibition test,"Lactobacillus brevis; Ind 1 L. brevis, 2 ppm, Inc Time 24",+
same,bacterial growth in inhibition test,"Lactobacillus brevis; Ind 1 L. brevis, 2 ppm, Inc Time 36",+
same,bacterial growth in inhibition test,"Lactobacillus brevis; Ind 1 L. brevis, 2 ppm, Inc Time 48",+
same,bacterial growth in inhibition test,"Lactobacillus brevis; Ind 1 L. brevis, 3 ppm, Inc Time 12",±
same,bacterial growth in inhibition test,"Lactobacillus brevis; Ind 1 L. brevis, 3 ppm, Inc Time 24",+
same,bacterial growth in inhibition test,"Lactobacillus brevis; Ind 1 L. brevis, 3 ppm, Inc Time 36",+
same,bacterial growth in inhibition test,"Lactobacillus brevis; Ind 1 L. brevis, 3 ppm, Inc Time 48",+
same,bacterial growth in inhibition test,"Lactobacillus brevis; Ind 1 L. brevis, 4 ppm, Inc Time 12",±
same,bacterial growth in inhibition test,"Lactobacillus brevis; Ind 1 L. brevis, 4 ppm, Inc Time 24",±
same,bacterial growth in inhibition test,"Lactobacillus brevis; Ind 1 L. brevis, 4 ppm, Inc Time 36",+
same,bacterial growth in inhibition test,"Lactobacillus brevis; Ind 1 L. brevis, 4 ppm, Inc Time 48",+
same,bacterial growth in inhibition test,"Lactobacillus brevis; Ind 1 L. brevis, 5 ppm, Inc Time 12",=
same,bacterial growth in inhibition test,"Lactobacillus brevis; Ind 1 L. brevis, 5 ppm, Inc Time 24",=
same,bacterial growth in inhibition test,"Lactobacillus brevis; Ind 1 L. brevis, 5 ppm, Inc Time 36",±
same,bacterial growth in inhibition test,"Lactobacillus brevis; Ind 1 L. brevis, 5 ppm, Inc Time 48",+
same,bacterial growth in inhibition test,"Lactobacillus brevis; Ind 43 L. brevis, 1 ppm, Inc Time 12",=
same,bacterial growth in inhibition test,"Lactobacillus brevis; Ind 43 L. brevis, 1 ppm, Inc Time 24",+
same,bacterial growth in inhibition test,"Lactobacillus brevis; Ind 43 L. brevis, 1 ppm, Inc Time 36",+
same,bacterial growth in inhibition test,"Lactobacillus brevis; Ind 43 L. brevis, 1 ppm, Inc Time 48",+
same,bacterial growth in inhibition test,"Lactobacillus brevis; Ind 43 L. brevis, 2 ppm, Inc Time 12",=
same,bacterial growth in inhibition test,"Lactobacillus brevis; Ind 43 L. brevis, 2 ppm, Inc Time 24",+
same,bacterial growth in inhibition test,"Lactobacillus brevis; Ind 43 L. brevis, 2 ppm, Inc Time 36",+
same,bacterial growth in inhibition test,"Lactobacillus brevis; Ind 43 L. brevis, 2 ppm, Inc Time 48",+
same,bacterial growth in inhibition test,"Lactobacillus brevis; Ind 43 L. brevis, 3 ppm, Inc Time 12",=
same,bacterial growth in inhibition test,"Lactobacillus brevis; Ind 43 L. brevis, 3 ppm, Inc Time 24",+
same,bacterial growth in inhibition test,"Lactobacillus brevis; Ind 43 L. brevis, 3 ppm, Inc Time 36",+
same,bacterial growth in inhibition test,"Lactobacillus brevis; Ind 43 L. brevis, 3 ppm, Inc Time 48",+
same,bacterial growth in inhibition test,"Lactobacillus brevis; Ind 43 L. brevis, 4 ppm, Inc Time 12",=
same,bacterial growth in inhibition test,"Lactobacillus brevis; Ind 43 L. brevis, 4 ppm, Inc Time 24",±
same,bacterial growth in inhibition test,"Lactobacillus brevis; Ind 43 L. brevis, 4 ppm, Inc Time 36",+
same,bacterial growth in inhibition test,"Lactobacillus brevis; Ind 43 L. brevis, 4 ppm, Inc Time 48",+
same,bacterial growth in inhibition test,"Lactobacillus brevis; Ind 43 L. brevis, 5 ppm, Inc Time 12",=
same,bacterial growth in inhibition test,"Lactobacillus brevis; Ind 43 L. brevis, 5 ppm, Inc Time 24",±
same,bacterial growth in inhibition test,"Lactobacillus brevis; Ind 43 L. brevis, 5 ppm, Inc Time 36",±
same,bacterial growth in inhibition test,"Lactobacillus brevis; Ind 43 L. brevis, 5 ppm, Inc Time 48",+
same,minimum inhibitory concentration,"Lactobacillus brevis; industry isolated Lactobacillus brevis, ppm of the fermentation mixture",1.0 ppm
same,bacterial growth in inhibition test,"Lactobacillus fermentum; ATCC L. fermentum, 0.1 ppm, Inc Time 12",=
same,bacterial growth in inhibition test,"Lactobacillus fermentum; ATCC L. fermentum, 0.1 ppm, Inc Time 24",=
same,bacterial growth in inhibition test,"Lactobacillus fermentum; ATCC L. fermentum, 0.1 ppm, Inc Time 36",=
same,bacterial growth in inhibition test,"Lactobacillus fermentum; ATCC L. fermentum, 0.1 ppm, Inc Time 48",±
same,bacterial growth in inhibition test,"Lactobacillus fermentum; ATCC L. fermentum, 0.3 ppm, Inc Time 12",=
same,bacterial growth in inhibition test,"Lactobacillus fermentum; ATCC L. fermentum, 0.3 ppm, Inc Time 24",=
same,bacterial growth in inhibition test,"Lactobacillus fermentum; ATCC L. fermentum, 0.3 ppm, Inc Time 36",=
same,bacterial growth in inhibition test,"Lactobacillus fermentum; ATCC L. fermentum, 0.3 ppm, Inc Time 48",=
same,bacterial growth in inhibition test,"Lactobacillus fermentum; ATCC L. fermentum, 0.5 ppm, Inc Time 12",=
same,bacterial growth in inhibition test,"Lactobacillus fermentum; ATCC L. fermentum, 0.5 ppm, Inc Time 24",=
same,bacterial growth in inhibition test,"Lactobacillus fermentum; ATCC L. fermentum, 0.5 ppm, Inc Time 36",=
same,bacterial growth in inhibition test,"Lactobacillus fermentum; ATCC L. fermentum, 0.5 ppm, Inc Time 48",=
same,bacterial growth in inhibition test,"Lactobacillus fermentum; ATCC L. fermentum, 1 ppm, Inc Time 12",=
same,bacterial growth in inhibition test,"Lactobacillus fermentum; ATCC L. fermentum, 1 ppm, Inc Time 24",=
same,bacterial growth in inhibition test,"Lactobacillus fermentum; ATCC L. fermentum, 1 ppm, Inc Time 36",=
same,bacterial growth in inhibition test,"Lactobacillus fermentum; ATCC L. fermentum, 1 ppm, Inc Time 48",=
same,bacterial growth in inhibition test,"Lactobacillus fermentum; ATCC L. fermentum, 5 ppm, Inc Time 12",=
same,bacterial growth in inhibition test,"Lactobacillus fermentum; ATCC L. fermentum, 5 ppm, Inc Time 24",=
same,bacterial growth in inhibition test,"Lactobacillus fermentum; ATCC L. fermentum, 5 ppm, Inc Time 36",=
same,bacterial growth in inhibition test,"Lactobacillus fermentum; ATCC L. fermentum, 5 ppm, Inc Time 48",=
same,bacterial growth in inhibition test,"Lactobacillus fermentum; Ind 1 L. fermentum, 0.1 ppm, Inc Time 12",=
same,bacterial growth in inhibition test,"Lactobacillus fermentum; Ind 1 L. fermentum, 0.1 ppm, Inc Time 24",±
same,bacterial growth in inhibition test,"Lactobacillus fermentum; Ind 1 L. fermentum, 0.1 ppm, Inc Time 36",±
same,bacterial growth in inhibition test,"Lactobacillus fermentum; Ind 1 L. fermentum, 0.1 ppm, Inc Time 48",±
same,bacterial growth in inhibition test,"Lactobacillus fermentum; Ind 1 L. fermentum, 0.3 ppm, Inc Time 12",=
same,bacterial growth in inhibition test,"Lactobacillus fermentum; Ind 1 L. fermentum, 0.3 ppm, Inc Time 24",=
same,bacterial growth in inhibition test,"Lactobacillus fermentum; Ind 1 L. fermentum, 0.3 ppm, Inc Time 36",=
same,bacterial growth in inhibition test,"Lactobacillus fermentum; Ind 1 L. fermentum, 0.3 ppm, Inc Time 48",±
same,bacterial growth in inhibition test,"Lactobacillus fermentum; Ind 1 L. fermentum, 0.5 ppm, Inc Time 12",=
same,bacterial growth in inhibition test,"Lactobacillus fermentum; Ind 1 L. fermentum, 0.5 ppm, Inc Time 24",=
same,bacterial growth in inhibition test,"Lactobacillus fermentum; Ind 1 L. fermentum, 0.5 ppm, Inc Time 36",=
same,bacterial growth in inhibition test,"Lactobacillus fermentum; Ind 1 L. fermentum, 0.5 ppm, Inc Time 48",=
same,bacterial growth in inhibition test,"Lactobacillus fermentum; Ind 1 L. fermentum, 1.0 ppm, Inc Time 12",=
same,bacterial growth in inhibition test,"Lactobacillus fermentum; Ind 1 L. fermentum, 1.0 ppm, Inc Time 24",=
same,bacterial growth in inhibition test,"Lactobacillus fermentum; Ind 1 L. fermentum, 1.0 ppm, Inc Time 36",=
same,bacterial growth in inhibition test,"Lactobacillus fermentum; Ind 1 L. fermentum, 1.0 ppm, Inc Time 48",=
same,bacterial growth in inhibition test,"Lactobacillus fermentum; Ind 1 L. fermentum, 5.0 ppm, Inc Time 12",=
same,bacterial growth in inhibition test,"Lactobacillus fermentum; Ind 1 L. fermentum, 5.0 ppm, Inc Time 24",=
same,bacterial growth in inhibition test,"Lactobacillus fermentum; Ind 1 L. fermentum, 5.0 ppm, Inc Time 36",=
same,bacterial growth in inhibition test,"Lactobacillus fermentum; Ind 1 L. fermentum, 5.0 ppm, Inc Time 48",=
